Experimental data as given in ChEMBL document CHEMBL1158345, “Fragment and knowledge-based design of selective GSK-3beta inhibitors using virtual screening models” (Eur J Med Chem, 2009).

The compounds below were run against Glycogen synthase kinase-3 beta (Homo sapiens, UniProt P49841).
Glycogen synthase kinase-3 beta, sequence (P49841 whole entry): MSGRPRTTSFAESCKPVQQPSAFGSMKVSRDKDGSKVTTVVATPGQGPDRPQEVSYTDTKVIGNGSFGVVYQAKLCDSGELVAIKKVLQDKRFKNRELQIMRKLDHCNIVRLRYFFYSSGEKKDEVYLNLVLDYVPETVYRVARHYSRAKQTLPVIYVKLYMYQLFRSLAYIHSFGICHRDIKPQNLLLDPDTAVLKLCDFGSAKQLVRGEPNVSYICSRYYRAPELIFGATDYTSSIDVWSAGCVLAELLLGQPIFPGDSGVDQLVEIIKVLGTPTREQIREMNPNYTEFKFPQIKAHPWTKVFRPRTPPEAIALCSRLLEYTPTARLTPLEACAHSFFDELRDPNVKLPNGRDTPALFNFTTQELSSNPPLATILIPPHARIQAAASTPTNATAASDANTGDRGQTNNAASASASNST
Description: Inhibition of human GSK3-beta

| Structure (SMILES) | IC50 [nM] | Ki [nM] |
| --- | --- | --- |
| O=[N+]([O-])c1ccc(NCCNc2ncc(-c3ncc[nH]3)c(-c3ccc(Cl)cc3Cl)n2)nc1 | – | 0.09 |
| Nc1nc(Nc2ccccc2)sc1C(=O)C1CC1 | 2400 | – |
| Cn1cc(C2=C(c3cc(Cl)ccc3Cl)C(=O)NC2=O)c2ccccc21 | 7 | – |
| Cn1cc(-c2cc(-c3nc4ccccc4[nH]3)c(=O)[nH]n2)ccc1=O | 160 | – |

Continued by falling IC50, values first:

| IC50 [nM] | Ki [nM] | Structure (SMILES) |
| --- | --- | --- |
| 2.8 | – | Cn1cc(C2=C(c3cn(CCCSC(=N)N)c4ccccc34)C(=O)NC2=O)c2ccccc21 [BISINDOLYLMALEIMIDE IX] |
| 0.14 | – | COc1cc(C2=C(c3cn(CCN4CCN(C)CC4)c4ccccc34)C(=O)NC2=O)c2occc2c1 |
